Reference: patent publication US10947205B2, “Oxazolidinone compounds and methods of use thereof as antibacterial agents” (priority 2015, dated 2021)
Values after ≈ are worked out from the molar mass of the structure shown. Like-named read-outs stand apart in the source and are kept apart here.

Key:
[1] = tested on: Mycobacterium tuberculosis (Mtb); assay: microbe, parasite or virus in culture; assay type: cell-based, Mycobacterium tuberculosis H37Rv (Mtb-GFP); conditions: 168 h
[2] = tested on: Staphylococcus aureus (methicillin resistant, MB5393, COL); assay: microbe, parasite or virus in culture; assay type: cell-based; conditions: MRSA, 22 h, read-out: MRSA COL MITC95 μM
Procedure: Inhibition of Staphylococcus aureus (methicillin resistant, MB5393, COL) growth was assessed in cation adjusted Mueller Hinton II broth (CAMHB) in 384-well microtiter plates. Bacteria were dispensed into microtiter plates at approximately 5×10^5 actively growing cells in 49 μL volumes per well. Cells were exposed to 2-fold serial dilutions of compounds from 200 μM to 0.195 μM and growth compared to drug-free control. Compound dilutions were prepared in 100% dimethylsulfoxide and added to microtiter plates in 1 μL volumes per well. Full growth control wells contained dimethylsufoxide and bacteria. No growth control wells contained dimethysulfoxide and CAMHB but no bacteria. Growth inhibition was assessed after a 22-hour growth period by measuring optical density using a spectrophotometer. The lowest concentration of test compound required to inhibit 95% of the growth of the bacteria was defined as the MITC95. All studies were done in a BSL2 facility.

[3] = tested on: mitochondrial protein synthesis in HepG2 cells (COX-I / SDH-A); assay: Mitochondrial protein synthesis assay; assay type: cell-based; conditions: Homo sapiens, read-out: MPS IC50_μM
Procedure: (§1) Inhibition of mitochondrial protein synthesis was assessed in HepG2 cells by comparing the levels of two subunits of oxidative phosphorylation enzyme complexes, subunit I of Complex IV (COX-I) and the 70 kDa subunit of Complex II (SDH-A). COX-I is mitochondrial DNA encoded and SDH-A is nuclear DNA encoded. HepG2 cells were seeded in 96-well collagen coated plates at 8,000 cells per well and exposed to 2-fold serial dilutions of compounds from 100 LM to 6.25 μM. Microtiter plates were incubated for approximately 5 replication cycles (4 days) prior to assessment of protein levels using a kit as described by the manufacturer (ab 110217 MitoBiogenesis In Cell ELISA Kit, Abcam, Cambridge, Mass.). Inhibition of mitochondrial protein synthesis was expressed as a ratio of COX-1 to SDH-A levels.
as §1, with “μM” for “LM”

[4] = pH 6.8, read-out: Mtb Cho MITC95_μM
[5] = pH 6.8, read-out: Mtb Glu MITC95_μM
[6] = 96 h, HepG2 cells, 4 days, ratio of COX-1 to SDH-A levels

Row | SMILES | MIC [1, 4] [µM] | MIC [1, 5] [µM] | MIC [2] [µM] | IC50 [3, 6] [µM] | IC50 ([3]; HepG2, 96 h) [µM]
1 | NC[C@H]1CN(c2ccc(-c3ccc(Cl)nc3)c(F)c2)C(=O)O1 [Example 22, (5S)-5-(aminomethyl)-3-[4-(6-chloropyridin-3-yl)-3-fluorophenyl]-1,3-oxazolidin-2-one] | 0.19 (≈ 0.0611 µg/mL) | 0.04 (≈ 0.0129 µg/mL) | 100 (≈ 32.2 µg/mL) | > 20 | 
2 | CC(C)(O)c1ncc(-c2ccc(N3C[C@H](CN)OC3=O)cc2F)s1 [Example 23, (5S)-5-(aminomethyl)-3-{3-fluoro-4-[2-(1-hydroxy-1-methylethyl)-1,3-thiazol-5-yl]phenyl}-1,3-oxazolidin-2-one] | 0.19 (≈ 0.0668 µg/mL) | 0.19 (≈ 0.0668 µg/mL) | 200 (≈ 70.3 µg/mL) | > 20 | 
3 | NC[C@H]1CN(c2ccc(-c3cccnc3)c(F)c2)C(=O)O1 [Example 24, (5S)-5-(aminomethyl)-3-(3-fluoro-4-pyridin-3-ylphenyl)-1,3-oxazolidin-2-one] | 0.09 (≈ 0.0259 µg/mL) | 0.04 (≈ 0.0115 µg/mL) | 200 (≈ 57.5 µg/mL) | > 20 | 
4 | NC[C@H]1CN(c2ccc(-c3cncnc3)c(F)c2)C(=O)O1 [Example 25, (5S)-5-(aminomethyl)-3-(3-fluoro-4-pyrimidin-5-ylphenyl)-1,3-oxazolidin-2-one] | 0.19 (≈ 0.0548 µg/mL) | 0.04 (≈ 0.0115 µg/mL) | 200 (≈ 57.7 µg/mL) | > 20 | 
5 | CC(C)(C)OC(=O)N1CC=C(c2ccc(N3C[C@H](CN)OC3=O)cc2F)CC1 [Example 26, tert-butyl 4-{4-[(5S)-5-(aminomethyl)-2-oxo-1,3-oxazolidin-3-yl]-2-fluorophenyl}-3,6-dihydropyridin-1(2H)-carboxylate] | 1.5 (≈ 0.587 µg/mL) | 0.78 (≈ 0.305 µg/mL) | 200 (≈ 78.3 µg/mL) | > 20 | 
6 | NC[C@H]1CN(c2ccc(-c3ccc4cc[nH]c4c3)c(F)c2)C(=O)O1 [Example 27, (5S)-5-(aminomethyl)-3-[3-fluoro-4-(1H-indol-6-yl)phenyl]-1,3-oxazolidin-2-one] | 0.78 (≈ 0.254 µg/mL) | 0.39 (≈ 0.127 µg/mL) | 200 (≈ 65.1 µg/mL) | > 50 | 
7 | COc1ncc(-c2ccc(N3C[C@H](CN)OC3=O)cc2F)cn1 [Example 28, (5S)-5-(aminomethyl)-3-[3-fluoro-4-(2-methoxypyrimidin-5-yl)phenyl]-1,3-oxazolidin-2-one] | 1.14 (≈ 0.363 µg/mL) | 0.3 (≈ 0.0955 µg/mL) | 200 (≈ 63.7 µg/mL) | > 100 | 
8 | NC[C@H]1CN(c2ccc(-c3cnc(N4CCCOCC4)nc3)c(F)c2)C(=O)O1 [Example 29, (5S)-5-(aminomethyl)-3-{3-fluoro-4-[2-(1,4-oxazepan-4-yl)pyrimidin-5-yl]phenyl}-1,3-oxazolidin-2-one] | 1.5 (≈ 0.581 µg/mL) | 0.39 (≈ 0.151 µg/mL) | 200 (≈ 77.5 µg/mL) | > 25 | 
9 | NC[C@H]1CN(c2ccc(-c3ccnc(Cl)c3)c(F)c2)C(=O)O1 [Example 30, (5S)-5-(aminomethyl)-3-[4-(2-chloropyridin-4-yl)-3-fluorophenyl]-1,3-oxazolidin-2-one] | 0.39 (≈ 0.125 µg/mL) | 0.09 (≈ 0.029 µg/mL) | 200 (≈ 64.3 µg/mL) | > 20 | 
10 | NC[C@H]1CN(c2ccc(-c3ccnc4[nH]ccc34)c(F)c2)C(=O)O1 [Example 31, (5S)-5-(aminomethyl)-3-[3-fluoro-4-(1H-pyrrolo[2,3-b]pyridin-4-yl)phenyl]-1,3-oxazolidin-2-one] | 0.78 (≈ 0.255 µg/mL) | 0.39 (≈ 0.127 µg/mL) | 200 (≈ 65.3 µg/mL) | > 20 | 
11 | CSc1ncc(-c2ccc(N3C[C@H](CN)OC3=O)cc2F)cn1 [Example 32, (5S)-5-(aminomethyl)-3-{3-fluoro-4-[2-(methylsulfanyl)pyrimidin-5-yl]phenyl}-1,3-oxazolidin-2-one] | 0.29 (≈ 0.097 µg/mL) | 0.24 (≈ 0.0803 µg/mL) | 200 (≈ 66.9 µg/mL) | > 20 | 
12 | NC[C@H]1CN(c2ccc(-c3ccc(C4CC4)nc3)c(F)c2)C(=O)O1 [Example 33, (5S)-5-(aminomethyl)-3-[4-(6-cyclopropylpyridin-3-yl)-3-fluorophenyl]-1,3-oxazolidin-2-one] | 0.19 (≈ 0.0622 µg/mL) | 0.845 (≈ 0.277 µg/mL) | 200 (≈ 65.5 µg/mL) | > 20 | 
13 | NC[C@H]1CN(c2ccc(-c3ccc4c(c3)CNC4=O)c(F)c2)C(=O)O1 [Example 34, 5-{4-[(5S)-5-(aminomethyl)-2-oxo-1,3-oxazolidin-3-yl]-2-fluorophenyl}-2,3-dihydro-1H-isoindol-1-one] | 0.04 (≈ 0.0137 µg/mL) | 0.04 (≈ 0.0137 µg/mL) | 200 (≈ 68.3 µg/mL) | > 20 | 
14 | Cn1cc(-c2ccc(N3C[C@H](CN)OC3=O)cc2F)cn1 [Example 37, (5S)-5-(aminomethyl)-3-[3-fluoro-4-(1-methyl-1H-pyrazol-4-yl)phenyl]-1,3-oxazolidin-2-one] | 0.39 (≈ 0.113 µg/mL) | 0.29 (≈ 0.0842 µg/mL) | 200 (≈ 58.1 µg/mL) | > 20 | 
15 | NC[C@H]1CN(c2ccc(-c3cnn4ncccc34)c(F)c2)C(=O)O1 [Example 38, (5S)-5-(aminomethyl)-3-(3-fluoro-4-pyrazolo[1,5-b]pyridazin-3-ylphenyl)-1,3-oxazolidin-2-one] | 0.39 (≈ 0.128 µg/mL) | 0.14 (≈ 0.0458 µg/mL) | 200 (≈ 65.5 µg/mL) | > 20 | 
16 | NC[C@H]1CN(c2ccc(-c3ccccc3)c(F)c2)C(=O)O1 [Example 39, (5S)-5-(aminomethyl)-3-(2-fluorobiphenyl-4-yl)-1,3-oxazolidin-2-one] | 0.78 (≈ 0.223 µg/mL) | 0.585 (≈ 0.167 µg/mL) | 200 (≈ 57.3 µg/mL) | > 20 | 
17 | CSc1ccc(-c2ncc(N3C[C@H](CNC(C)=O)OC3=O)cc2F)cc1 [Example 40, (S)—N-((3-(5-fluoro-6-(4-(methylthio)phenyl)pyridin-3-yl)-2-oxooxazolidin-5-yl)methyl)acetamide] | 0.09 (≈ 0.0338 µg/mL) | 0.076 (≈ 0.0285 µg/mL) | 4.69 (≈ 1.76 µg/mL) |  | > 15
18 | CSc1ccc(-c2ccc(N3C[C@H](CNC(=O)C4CC4)OC3=O)cc2F)cc1 [Example 41, (S)—N-((3-(2-fluoro-4′-(methylthio)-[1,1′-biphenyl]-4-yl)-2-oxooxazolidin-5-yl)methyl)cyclopropanecarboxamide] | 0.04 (≈ 0.016 µg/mL) | 0.04 (≈ 0.016 µg/mL) | 200 (≈ 80.1 µg/mL) | 8 | 
19 | CC(=O)NC[C@H]1CN(c2ccc(N3CCn4ncnc4C3)cc2)C(=O)O1 [Example 42, (S)—N-((3-(4-(5,6-dihydro-[1,2,4]triazolo[1,5-a]pyrazin-7(8H)-yl)phenyl)-2-oxooxazolidin-5-yl)methyl)acetamide] | 1.5 (≈ 0.535 µg/mL) | 1.5 (≈ 0.535 µg/mL) | 200 (≈ 71.3 µg/mL) |  | > 20
20 | CSc1ccc(-c2ccc(N3C[C@H](Cn4cncn4)OC3=O)cc2F)cc1 [Example 43, (R)-5-((1H-1,2,4-triazol-1-yl)methyl)-3-(2-fluoro-4′-(methylthio)-[1,1′-biphenyl]-4-yl)oxazolidin-2-one] | 0.19 (≈ 0.073 µg/mL) | 0.58 (≈ 0.223 µg/mL) | 200 (≈ 76.9 µg/mL) | > 20 | 
21 | CSc1ccc(-c2ccc(N3C[C@H](Cn4cnnn4)OC3=O)cc2F)cc1 [Example 44, (5R)-3-[2-fluoro-4′-(methylsulfanyl)biphenyl-4-yl]-5-(1H-tetrazol-1-ylmethyl)-1,3-oxazolidin-2-one] | 0.04 (≈ 0.0154 µg/mL) | 0.19 (≈ 0.0732 µg/mL) | 200 (≈ 77.1 µg/mL) | > 20 | 
22 | CSc1ccc(-c2ccc(N3C[C@H](Cn4cccn4)OC3=O)cc2F)cc1 [Example 46, (5R)-3-[2-fluoro-4′-(methylsulfanyl)biphenyl-4-yl]-5-(1H-pyrazol-1-ylmethyl)-1,3-oxazolidin-2-one] | 0.29 (≈ 0.111 µg/mL) | 0.585 (≈ 0.224 µg/mL) | 200 (≈ 76.7 µg/mL) | > 20 | 
23 | CSc1ccc(-c2c(F)cc(N3C[C@H](CNC(C)=O)OC3=O)cc2F)cc1 [Example 47, (S)—N-((3-(2,6-difluoro-4′-(methylthio)-[1,1′-biphenyl]-4-yl)-2-oxooxazolidin-5-yl)methyl)acetamide] | 0.01 (≈ 0.00392 µg/mL) | 0.03 (≈ 0.0118 µg/mL) | 0.781 (≈ 0.307 µg/mL) | > 20 | 
24 | NC[C@H]1CN(c2cnc(N3CCS(=O)(=O)CC3)c(F)c2)C(=O)O1 [Example 48, (S)-5-(aminomethyl)-3-(6-(1,1-dioxidothiomorpholino)-5-fluoropyridin-3-yl)oxazolidin-2-one] | 0.78 (≈ 0.269 µg/mL) | 0.39 (≈ 0.134 µg/mL) | 200 (≈ 68.9 µg/mL) | > 100 | 
